What was measured:
Leishmania donovani = assay: Infected macrophage model of the Leishmania donovani parasite; format: cell-based; conditions: for IC50: read-out: L. donovani IC50
MRSA [1] = assay: Pure compound activity against MRSA (ESKAPE pathogens); format: cell-based, Staphylococcus aureus; conditions: for IC50: pure compound
MRSA [2] = assay: MRSA drug wash-out study / MBC99; format: cell-based, Staphylococcus aureus

| Substance | IC50 (Leishmania donovani) | IC50 (MRSA [1]) | also measured |
| --- | --- | --- | --- |
| LL-Z1272ε [Compound 6] |  |  | activity towards the macrophages (macrophages): neither phomopsichromin D (4) nor LL-Z1272ε (6) showed any activity; L. donovani IC50 (μM) (Leishmania donovani): neither phomopsichromin D (4) nor LL-Z1272ε (6) showed any activity |
| Phomopsichromin A [Compound 1] | 3000 nM | 518 µM |  |
| Phomopsichromin B [Compound 2] | 1900 nM | 515 µM |  |
| Phomopsichromin C [Compound 3] | 670 nM | 58 µM | MIC against MRSA (MRSA [1]): 58 µM; drug wash-out study: bactericidal or not (MRSA [2]): bactericidal |
| Phomopsichromin D [Compound 4] |  |  | activity towards the macrophages (macrophages): neither phomopsichromin D (4) nor LL-Z1272ε (6) showed any activity; L. donovani IC50 (μM) (Leishmania donovani): neither phomopsichromin D (4) nor LL-Z1272ε (6) showed any activity |
| Phomopsichromin E [Compound 5] | 800 nM | 515 µM |  |
| gentamicin [reference compound] |  |  | MRSA MBC99 (MRSA [2]): 20 µM |
